Columns and labels:
[1] = test system: murine P388 leukemia cell; assay: Antitumor effect on murine P388 leukemia cell; assay type: in vivo, murine; male CDF1 mice; settings: for ILSmax (maximum percent increase in life-span) / ILS50 (dose which shows 50% of the ILS value by 5 administrations) / dose corresponding to ILSmax: P388, i.p. once a day for 5 days; for ILSmax (maximum percent increase in life-span): 30 days observation; for ILS50 (dose which shows 50% of the ILS value by 5 administrations): linear regression; for TI (therapeutic index, LD50 value/ILS50 value): P388
Method: (§1) Murine L1210 leukemia cells (1×10^5 cells) were inoculated peritoneally into six-week-old male CDF1 mice on day 0. From the next day after the inoculation, a drug (the compound of the invention or a compound for comparison) was administered peritoneally once a day for 5 days. After 30 days of observation, the percent increase in life-span (ILS) was calculated as follows: […]
(§2) T: mean survival days of the drug-treated group
(§3) C: mean survival days of control group
(§4) In these tables, ILSmax means maximum ILS value (%), and corresponding dose (mg/kg) is Shown in parenthesis.
Antitumor effect on murine P388 leukemia cell:
The test of Test Example 1 was repeated except that 1×10^6 of murine P388 leukemia cells were used instead of 1×10^5 of murine L1210 leukemia cells.

[2] = test system: murine L1210 leukemia cell; assay: Antitumor effect on murine L1210 leukemia cell (increase in life-span of inoculated mice); assay type: in vivo, murine; male CDF1 mice; settings: for ILSmax (maximum percent increase in life-span) / ILS50 (dose which shows 50% of the ILS value by 5 administrations) / dose corresponding to ILSmax: L1210, i.p. once a day for 5 days; for ILSmax (maximum percent increase in life-span): 30 days observation; for ILS50 (dose which shows 50% of the ILS value by 5 administrations): linear regression; for TI (therapeutic index, LD50 value/ILS50 value): L1210
Method: as §1, §2, §3, §4

[3] = 50% lethal dose by single peritoneal administration, obtained at the time of the dose setting; assay type: in vivo, CDF1 mice
Description: as §4

[4] = test system: cisplatin-resistant murine L1210 leukemia cell (L1210/DDP); assay: Antitumor effect on cisplatin-resistant murine L1210 leukemia cell (L1210/DDP); assay type: in vivo, murine; male CDF1 mice; settings: for ILSmax (maximum percent increase in life-span) / dose corresponding to ILSmax / ILS50 (dose which shows 50% of the ILS value by 5 administrations): i.p. once a day for 5 days; for ILSmax (maximum percent increase in life-span): 30 days observation; for ILS50 (dose which shows 50% of the ILS value by 5 administrations): linear regression
Method: as §1, §2, §3
In these tables, ILSmax means maximum ILS value (%), and corresponding dose (mg/kg) is Shown in parenthesis. In this test, cisplatin and carboplatin were respectively tested in each test lot for accurate comparison.
Antitumor effect on cisplatin-resistant murine L1210 leukemia cell (L1210/DDP):
The test of Test Example 1 was repeated except that cisplatin-resistant murine L1210 leukemia cell (L1210/DDP) was used instead of murine L1210 leukemia cell.

| Structure (SMILES) | ILSmax (maximum percent increase in life-span) ([1]; Table 8 test lot) | ILS50 (dose which shows 50% of the ILS value by 5 administrations) ([1]; Table 8 test lot) | dose corresponding to ILSmax ([1]; Table 8 test lot) | TI (therapeutic index, LD50 value/ILS50 value) ([1]; Table 8 test lot) | ILSmax (maximum percent increase in life-span) ([2]; Table 4 test lot) | ILS50 (dose which shows 50% of the ILS value by 5 administrations) ([2]; Table 4 test lot) | dose corresponding to ILSmax ([2]; Table 4 test lot) | TI (therapeutic index, LD50 value/ILS50 value) ([2]; Table 4 test lot) | LD50 (50% lethal dose) [3] | TI (therapeutic index, LD50 value/ILS50 value) ([4]; Table 6 test lot) | ILSmax (maximum percent increase in life-span) ([4]; Table 6 test lot) | dose corresponding to ILSmax ([4]; Table 6 test lot) | ILS50 (dose which shows 50% of the ILS value by 5 administrations) ([4]; Table 6 test lot) | further results |
| --- | --- | --- | --- | --- | --- | --- | --- | --- | --- | --- | --- | --- | --- | --- |
| N.NC1CCCCC1.[Cl][Pt][Cl] [Comparative drug A, cis-dichloroammine cyclohexylamineplatinum(II), reference compound] | 101.9% | < 1.0 mg/kg | 4.0 mg/kg | > 31.3 | 97.6% | < 1.0 mg/kg | 8.0 mg/kg | > 31.3 | 31.3 mg/kg | > 31.3 | > 157.5% | 1.0 mg/kg | < 1.0 mg/kg | – |
| CCON.N.[Cl][Pt][Cl] [Compound No. 5, cis-dichloroammine (O-ethylhydroxylamine)platinum(II)] | > 129.6% | 0.6 mg/kg | 4.0 mg/kg | 36.8 | > 109.4% | 0.9 mg/kg | 4.0 mg/kg | 24.6 | 22.1 mg/kg | 27.6 | > 152.8% | 2.0 mg/kg | 0.8 mg/kg | – |
| N.N.O=C([O-])C1(C(=O)[O-])CCC1.[Pt+2] [Carboplatin, carboplatin, reference compound] | 73.1% | 10.5 mg/kg | 16.0 mg/kg | 23.3 | 50.6% | 41.0 mg/kg | 64.0 mg/kg | 6.0 | 245.0 mg/kg | – | 8.5% | 16.0 mg/kg | – | ILSmax (maximum percent increase in life-span) ([1]; Table 9 test lot): 79.8%; ILSmax (maximum percent increase in life-span) ([1]; Table 10 test lot): 57.3%; ILS50 (dose which shows 50% of the ILS value by 5 administrations) ([1]; Table 9 test lot): 12.1 mg/kg; ILS50 (dose which shows 50% of the ILS value by 5 administrations) ([1]; Table 10 test lot): 13.8 mg/kg; dose corresponding to ILSmax ([1]; Table 9 test lot): 32.0 mg/kg; dose corresponding to ILSmax ([1]; Table 10 test lot): 32.0 mg/kg; TI (therapeutic index, LD50 value/ILS50 value) ([1]; Table 9 test lot): 20.2; TI (therapeutic index, LD50 value/ILS50 value) ([1]; Table 10 test lot): 17.8; ILSmax (maximum percent increase in life-span) ([2]; Table 5 test lot): 72.5%; ILS50 (dose which shows 50% of the ILS value by 5 administrations) ([2]; Table 5 test lot): 33.9 mg/kg; dose corresponding to ILSmax ([2]; Table 5 test lot): 64.0 mg/kg; TI (therapeutic index, LD50 value/ILS50 value) ([2]; Table 5 test lot): 7.2; ILSmax (maximum percent increase in life-span) ([4]; Table 7 test lot): 14.3%; dose corresponding to ILSmax ([4]; Table 7 test lot): 64.0 mg/kg |

Reference: patent US5498780A, “Platinum complex and malignant tumor treating drug containing the same” (SS Pharmaceutical Co., Ltd., priority 1994, dated 1996)
